The values that follow come from patent publication US7820374B2, “Detection methods based on HR23 protein binding molecules” (Erasmus Universiteit Rotterdam, priority 2001, dated 2010).

Where a SMILES comes first, the peptide text is derived from it. The star is where a group is joined. Cbz = O=C(OCc1ccccc1)*

In experiment [1] the test system is DKO cells expressing hXPC-GFP/hHR23B. The experiment can be described thus: XPC-GFP accumulation in living DKO cells expressing hXPC-GFP/hHR23B after exposure to agents (fluorescence microscopy). Type of experiment: cell-based, mouse. As to the method:
Cells stably expressing hXPC-GFP/hHR23B were rinsed with PBS, exposed to UV-C light (254 nm; Philips TUV lamp, dose as indicated in the text) and subsequently cultured at 37° C. for various time periods (as indicated in the text). XPC was detected either by immunoblot analysis or by visualization in living cells using fluorescence microscopy. A similar approach was used to study the effect of N-acetoxy-2-acetylaminofluorene (NA-AAF, final concentration 50 or 100 μM), mitomycin C (MMC, Sigma, final concentration 1.2 or 2.4 μg/ml), ionizing radiation (γ-rays from a ^137Cs source, single dose of 6 and 10 Gy), the proteasome inhibitor N-CBZ-LEU-LEU-LEU-AL (CBZ-LLL, Sigma, final concentration 5 or 10 μM), the transcription inhibitor 5,6-dichloro-1β-D-ribofuranosyl-benzimidazole (DRB, Sigma, final concentration of 100 μM, 2-3 hrs), the translation inhibitor cyclohexamide (CHX, Boehringer, final concentration 30, 50, and 100 μg/ml, 1-3 hours), heat shock (39.5 and 41° C., for 2-12 hrs), and the nuclear export inhibitor leptomycin B (LMB, Sigma, final concentration 10 ng/ml).
Immunofluorescent microscopy images were obtained with either a Leitz Aristoplan microscope equipped with epifluorescene optics and a PlanApo 63×/1.40 oil immersion lens or a Leica DMRBE microscope equipped with epifluorescene optics and a PL Fluotar 100×/1.30 oil immersion lens. For the detection of GFP-tagged proteins in the living cell, an Olympus IX70 microscope equipped with epifluorescence optics and Olympus PlanApo 60×/1.40 oil immersion lens was used. GFP images were obtained after excitation with 455-490 and long pass emission filter (>510 nm). Cy-3 images were obtained after excitation with 515-560 and long pass emission filter (580 nm).

In experiment [2] the test system is CRM1/Exportin1-mediated nuclear export of XPC-GFP. Briefly: Heterokaryon nuclear-cytoplasmic shuttling assay (DKO cells expressing XPC-GFP/hHR23B fused to HeLa cells). The settings on record: LMB 10 ng/ml directly after cell fusion; XPC-GFP induced by 10 J/m^2 UV-C 6 hr prior to fusion; 4 hr after fusion. Type of experiment: cell-based, mouse/human heterokaryon. As to the method:
The shuttling assay using heterokaryons was performed as described (Borer et al., 1989). One day before cell fusion, DKO cells stably expressing hXCPC-GFP/hHR23B and HeLa cells were seeded in a 1:1 ratio on coverslips. Six hours prior to fusion, cells were irradiated with 10 J/m^2 UV-C or treated with 10 μM CBZ-LLL. Cell-fusion was induced (after washing with PBS) by treatment with 50% polyethylene glycol 6,000 in HANKS™ (Gibco) for 2 min followed by (3×) washing with PBS. Finally, cells were cultured in fresh medium either supplemented with or without leptomycin B (LMB, final concentration 10 ng/ml). Three to five hours after fusion, cells were fixed with 2% paraformaldehyde and immunostained with rat monoclonal anti-HA (to monitor the XPC-GFP-His6HA protein) and rabbit polyclonal anti-human ERCC1 (to distinguish human nuclei from mouse nuclei, since it specifically recognizes human ERCC1) and subsequently with appropriate secondary antibodies (see above).

For the compound `CC(=O)ON(C(C)=O)c1ccc2c(c1)Cc1ccccc1-2` [NA-AAF, N-acetoxy-2-acetylaminofluorene], the “XPC accumulation (hXPC-GFP fluorescence)” value in experiment [1] (NA-AAF 50 and 100 μM, within 6 to 8 hrs) is “very potent UV-like response in all cells”.

Consider `OC[C@H]1O[C@@H](n2cnc3cc(Cl)c(Cl)cc32)[C@H](O)[C@@H]1O` [DRB, 5,6-dichloro-1β-D-ribofuranosyl-benzimidazole], for which the “induction of XPC-GFP fluorescence” value in experiment [1] (DRB 100 μM alone, no DNA damage) was “No induction of XPC-GFP fluorescence was observed”. The “UV-induced XPC-GFP accumulation” value in experiment [1] (preincubation with DRB (2-3 hrs) prior to UV treatment, data not shown) is reported as “prevented UV-induced XPC-GFP accumulation”.

As to `CC(C)C[C@@H](C=O)NC(=O)[C@H](CC(C)C)NC(=O)[C@H](CC(C)C)NC(=O)OCc1ccccc1` [CBZ-LLL, N-CBZ-LEU-LEU-LEU-AL] (Cbz-Leu-Leu-Leu-aldehyde), in experiment [1] (CBZ-LLL 5 and 10 μM, after drug removal (not shown)), the “reversibility of XPC-GFP accumulation” value is on record as “reversible upon drug removal”. Also, in experiment [1] (CBZ-LLL 5 and 10 μM, confirmed by immunoblot and anti-HA immunocytochemistry), the XPC-GFP accumulation result is “all cells displayed a striking XPC-GFP accumulation in time”.

In the case of `C[C@@H]1C[C@@H]([C@H](O)CC2CC(=O)NC(=O)C2)C(=O)[C@@H](C)C1` [cyclohexamide], the XPC fluorescence result in experiment [1] (cyclohexamide 30 and 50 μg/ml) is given as “no enhanced XPC fluorescence was found”.

For the compound `CCC(=C/[C@H](C)C/C=C/C(C)=C/[C@@H](C)C(=O)[C@@H](C)[C@H](O)[C@@H](C)C/C(C)=C/C(=O)O)/C=C/[C@@H]1OC(=O)C=C[C@@H]1C` [LMB, leptomycin B], the “exchange of nuclear XPC-GFP from mouse (DKO) nuclei to human (HeLa) nuclei” value in experiment [2] is reported as “prevented this exchange”.

For `CO[C@@]12[C@H](COC(N)=O)C3=C(C(=O)C(C)=C(N)C3=O)N1C[C@@H]1N[C@@H]12` [MMC, mitomycin C], the “XPC accumulation (hXPC-GFP fluorescence)” value in experiment [1] (MMC 1.2 and 2.4 μg/ml) is “failed to provoke detectable XPC accumulation”.
